Data on two substances can be found in patent US20130195926A1, “MODULATION OF NITRIC OXIDE SIGNALING TO NORMALIZE TUMOR VASCULATURE” (The General Hospital Corporation, priority 2007, published 2013).

Data set [1] has as its system nNOS. Briefly: Western blot of nNOS knockdown in cultured nNOS shRNA-transfected U87 cells. It counts as cell-based, human. The method, then:
U87MG (American Type Culture Collection HTB-14) and GL261 (generous gift from Dr. G. Yancey Gillespie at University of Alabama) tumor cells were cultured in Dulbecco's Modified Eagle's Medium with 10% fetal bovine serum at 37° C. in a humidified 5% CO2 incubator. The following short-hairpin RNAs (shRNAs) for nNOS were designed using a commercial service program for small interfering RNA (siRNA) target finder (http://www.ambion.com/techlib/misc/siRNA_finder.html): nNOS-shRNA58, CAAAGAGATCGACACCATC (sense), […] (antisense); nNOSshRNA97, CACGCATGTCTGGAAAGGC (sense), […](antisense); nNOS-shRNA150, GGTCTATCCAATGTCCACA (sense), […] (antisense). The DNA oligonucleotides consist of a 19-nucleotide sense siRNA sequence linked to its reverse complementary antisense siRNA sequence by a short spacer (TTCAAGAGA).
Each DNA oligonucleotide was prepared with nucleotide overhangs with BamHI and HindIII restriction sites added to the 5′ and 3′ end of the DNA oligonucleotides and subcloned into the pSilencer 3.1 H-1-hygro (Ambion) that allows transcription of the shRNA. These expression vectors were stably transfected into U87MG cells using LipofectAMINE 2000 (Invitrogen) following the manufacturer's instruction.
The stably transfected cells were selected with 80 μg/ml of hygromycin B. The expression of nNOS protein in U87 tumor cells and tissues was determined by'Western blot analysis. […]
Equal amounts of 60 micrograms of protein per sample were separated on 7.5% SDS polyacrylamide gels, transferred onto polyvinylidene fluoride membrane (Millipore), incubated with primary antibodies followed by secondary antibodies (the same antibodies used in immunohistochemistry studies. See Immunohistochemistry methods below), and detected using enhanced chemiluminescence (GE Healthcare) by exposure on autoradiography films (Kodak) (Xu, L., et al. 2005 Cancer Res. 65, 5711-5719; Canneliet, P., et al. 1998 Nature 394, 485-490; Xu, L., et al. 2002 Journal of Biological Chemistry 277, 11368-11374 (2002); and Xu, L., et al. 2004 Clinical Cancer Research 10, 701-707). […]
(Immunoblotting shows a protein as a band on a membrane.)

Data set [2] relates to U87 gliomas. Briefly: NO distribution in U87 gliomas by DAF-2T fluorescence (MPLSM). Type of data set: in vivo, mice. To be noted: U87 tumor with shRNA58 vs parental U87, cranial window, Rag-1-/- mice. The method, then: FIGS. 3A-B show microfluorographs depicting NO distribution in U87 gliomas grown in the cranial window in Rag-1^−/−. NO production was visualized by means of DAF-2T fluorescence 0, 20, 40 and 60 min after DAF-2 (0.5 mg/body) injection. Left column, micro-angiography with tetramethylrhodamine-dextran (2000 kDa). Middle column, representative DAF-2T microfluorography captured 60 min after the loading of DAF-2 in tumors. Right column, pseudocolor representation of DAF-2T microfluorographs. […] Bars indicate 100 μm. (A) NO distribution in parental U87MG (top row) or nNOS shRNA58-transfected-U87 (bottom row) tumors. […]
Vascular parameters such as functional vessel density (the total length of perfused microvessels per unit area) and vessel diameter were analyzed by tracing each vessel segment using NIH image 1.63 as described elsewhere (Kashiwagi, S., et al. 2005 J. Clin. Invest. 115, 1816-1827). Tissue distribution of NO was visualized using MPLSM and the NO-sensitive fluorescence probe 4,5-diaminofluorescein (DAF-2) (0.5 mg i.v. Daiichi Pure Chemicals Co. Ltd) as described previously (Kashiwagi, S., et al. 2005 J. Clin. Invest. 115, 1816-1827). NO converts DAF-2 to 4,5-diaminofluorescein triazolium (DAF-2T) increasing fluorescence by a factor of 200. The DAF-2 associated fluorescence images were captured 60 min after i.v. injection. […]

As for “shRNA58: short-hairpin RNA for nNOS, CAAAGAGATCGACACCATC (sense), GATGGTGTCGATCTCTTTGTT (antisense), in pSilencer 3.1 H-1-hygro, stably transfected into U87MG”, in data set [1], the “Knockdown efficiency of nNOS in vitro” value is 99%. For the same substance, the “DAF-associated fluorescence (NO distribution)” value in data set [2] is “predominantly localized in vascular region”.

With “shRNA150: short-hairpin RNA for nNOS, GGTCTATCCAATGTCCACA (sense), TGTGGACATTGGATAGACCTT (antisense), in pSilencer 3.1 H-1-hygro”, the “Knockdown efficiency of nNOS in vitro” value in data set [1] was 99%.
